How the values were obtained:
[1] = target: T1, human CRTH2 (Homo sapiens, UniProt Q9Y5Y4); test: Measurement of Ca2+ mobilization in the human CRTH2-transfected L1.2 cell line (Assay 1); format: cell-based; conditions: PGD2-induced Ca2+ mobilization in CRTH2-transfected L1.2 cells; compounds as yielded by solid phase synthesis, purity about 40 to 90%; read-out: Activity class
T1 construct: expressed in transfected cells; host or cells: L1.2 cells, pEAK expression vector, puromycin-selected
T1 sequence (Q9Y5Y4 1-395): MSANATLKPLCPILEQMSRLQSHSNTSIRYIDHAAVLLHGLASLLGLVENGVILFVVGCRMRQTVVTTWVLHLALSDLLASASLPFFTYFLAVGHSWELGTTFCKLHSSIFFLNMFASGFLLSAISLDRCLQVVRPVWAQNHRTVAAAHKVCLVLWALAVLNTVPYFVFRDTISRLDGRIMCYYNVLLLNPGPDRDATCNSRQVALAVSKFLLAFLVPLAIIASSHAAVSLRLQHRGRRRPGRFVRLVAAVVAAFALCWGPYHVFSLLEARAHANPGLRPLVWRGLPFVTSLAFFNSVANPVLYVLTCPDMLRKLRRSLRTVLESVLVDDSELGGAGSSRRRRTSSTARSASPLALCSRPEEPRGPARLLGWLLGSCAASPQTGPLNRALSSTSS
Summary of the method: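 Human CRTH2 was stably expressed in L1.2 cells (puromycin-selected) loaded with Fluo-3AM (1 μM final) for 60 min at room temperature. Buffer was 20 mM HEPES pH 7.6, 0.1% BSA, 1 mM probenecid in Hanks'. Cells (2×10^5/well) got compound for 5 min at RT, with fluorescence at 480 nm. IC50 bins: A ≤10 nM, B ≤100 nM, C ≤500 nM, D above; samples were solid-phase products of about 40–90% purity.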

IC50 [1] | melting point | SMILES
< 10 nM | 221 to 224 °C (dec.) | O=C(O)Cc1cnc(Cc2ccc(NC(=O)c3ccc4ccccc4n3)cc2)nc1N1CCCC1 [Example 2-27]
100 to 500 nM | 131 to 133 °C | CN(C)c1nc(Cc2ccc(NC(=O)c3ccc4ccccc4n3)cc2)nc(N2CCCC2)c1CC(=O)O [Example 7-9]
> 500 nM | 102 to 105 °C | COCC(=O)Nc1ccc(Cc2ncc(CC(=O)O)c(N3CCCC3)n2)cc1 [Example 2-34]
> 500 nM | > 70 °C | CN(CC(=O)NC1CCCC1)c1nc(Cc2ccc(NCc3ccccc3)cc2)nc(Cl)c1CC(=O)O [Example 5-2]
< 10 nM | 150 to 153 °C | CC(c1ccc(NC(=O)/C=C/c2ccccc2)cc1)c1ncc(CC(=O)O)c(N(C)C)n1 (centres unmarked) [Example 2-23]
< 10 nM | > 130 °C | COc1ccc(C(=O)Nc2ccc(Cc3nc(Cl)c(CC(=O)O)c(N(C)C)n3)cc2)cc1 [Example 1-36]
10 to 100 nM | 145 to 148 °C | CC(C)c1nc(Cc2ccc(NC(=O)c3ccc(C(F)(F)F)cc3)cc2)nc(N(C)C)c1CC(=O)O [Example 8-11]
> 500 nM | 205 to 207 °C | CN(C)c1nc(Cc2ccc(NC(=O)c3ccc4ccccc4n3)cc2)nc(N2CCOCC2)c1CC(=O)O [Example 7-17]
10 to 100 nM | > 116 °C | Cc1ccc(CC(=O)Nc2ccc(Cc3nc(Cl)c(CC(=O)O)c(N(C)CC(=O)NC4CCCC4)n3)cc2)cc1 [Example 1-15]
100 to 500 nM | > 100 °C | CCCCCC(=O)Nc1ccc(Cc2nc(Cl)c(CC(=O)O)c(N(C)CC(=O)NC3CCCC3)n2)cc1 [Example 1-12]
> 500 nM | > 142 °C | CC(C)C(=O)Nc1ccc(Cc2nc(Cl)c(CC(=O)O)c(N(C)CC(=O)NC3CCCC3)n2)cc1 [Example 1-5]
10 to 100 nM | 144 to 147 °C | CN(C)c1nc(Cc2ccc(NC(=O)c3ccc(C(F)(F)F)cc3)cc2)nc(N2CCCC2)c1CC(=O)O [Example 7-12]
< 10 nM | 96 °C | CN(C)c1nc(Cc2ccc(NC(=O)c3cc(Cl)ccc3Cl)cc2)nc(Cl)c1CC(=O)O [Example 1-44]
100 to 500 nM | 132 to 135 °C | CN(C)c1nc(Cc2ccc(NC(=O)c3ccc(F)cc3)cc2)nc(N2CCCC2)c1CC(=O)O [Example 7-28]
10 to 100 nM | 140 to 142 °C | CN(C)c1nc(Cc2ccc(NC(=O)c3ccc(Cl)cc3)cc2)nc(N2CCCC2)c1CC(=O)O [Example 7-29]
< 10 nM | 135 to 142 °C | CN(C)c1nc(Cc2ccc(NC(=O)c3ccc4ccccc4n3)cc2)nc(Cl)c1CC(=O)O [Example 1-32]
< 10 nM | > 110 °C | CN(CC(=O)NC1CCCC1)c1nc(Cc2ccc(NC(=O)CC3Cc4ccccc4C3)cc2)nc(Cl)c1CC(=O)O [Example 1-28]
< 10 nM | 143 °C | CN(CC(=O)NC1CCCC1)c1nc(Cc2ccc(NC(=O)c3ccc(Cl)cc3)cc2)nc(Cl)c1CC(=O)O [Example 1-18]
< 10 nM | 140 °C | CN(CCO)c1nc(Cc2ccc(NC(=O)c3ccc4ccccc4c3)cc2)nc(Cl)c1CC(=O)O [Example 1-66]
10 to 100 nM | 148 to 150 °C | CC(C)CC(=O)Nc1ccc(Cc2ncc(CC(=O)[O-])c(N3CCCC3)n2)cc1.[Na+] [Example 2-32]
< 10 nM | 117 °C | CN(C)c1nc(Cc2ccc(NC(=O)/C=C/c3ccc(Cl)cc3)cc2)nc(Cl)c1CC(=O)O [Example 1-41]
10 to 100 nM | 186 °C | CN(C)c1nc(Cc2cccc(NC(=O)c3ccc4ccccc4c3)c2)nc(Cl)c1CC(=O)O [Example 1-49]
10 to 100 nM | > 140 °C | CN(CC(=O)NC1CCCC1)c1nc(Cc2ccc(NC(=O)c3ccccc3)cc2)nc(Cl)c1CC(=O)O [Example 1-9]
< 10 nM | 115 °C | COc1c(C)cc(C(=O)Nc2ccc(Cc3nc(Cl)c(CC(=O)O)c(N4CCCC4)n3)cc2)cc1C [Example 1-59]
> 500 nM | 116 °C | CN(CC(=O)NC1CCCC1)c1nc(Cc2ccc(NS(=O)(=O)c3ccc4ccccc4c3)cc2)nc(Cl)c1CC(=O)O [Example 1-23]
< 10 nM | 188 to 190 °C | O=C(O)Cc1c(Cl)nc(Cc2ccc(NC(=O)/C=C/c3ccc(Cl)cc3)cc2)nc1N1CCCC1 [Example 1-65]

IC50 [1] | melting point | SMILES
< 10 nM | 100 °C | CN(C)c1nc(Cc2ccc(NC(=O)OCc3ccccc3)cc2)nc(N(C)C)c1CC(=O)O [Example 9-7]
< 10 nM | 104 °C | CN(C)c1nc(Cc2ccc(NC(=O)C3CCC(C(C)(C)C)CC3)cc2)nc(Cl)c1CC(=O)O (centres unmarked) [Example 1-51]
< 10 nM | 100 °C | CN(C)c1nc(Cc2ccc(NC(=O)c3ccc(Br)cc3)cc2)nc(Cl)c1CC(=O)O [Example 1-42]
> 500 nM | > 174 °C | CN(CC(=O)NC1CCCC1)c1nc(Cc2ccc(NC(=O)c3cccnc3)cc2)nc(Cl)c1CC(=O)O [Example 1-4]
< 10 nM | 137 to 140 °C | CC(c1ccc(NC(=O)c2ccc(Cl)c(Cl)c2)cc1)c1ncc(CC(=O)O)c(N(C)C)n1 (centres unmarked) [Example 2-21]
10 to 100 nM | 151 to 153 °C | CN(C)c1nc(Cc2ccc(NC(=O)/C=C/c3ccccc3)cc2)nc(N2CCCC2)c1CC(=O)O [Example 7-11]
< 10 nM | > 139 °C | CN(CC(=O)NC1CCCC1)c1nc(Cc2ccc(NC(=O)CCc3ccccc3)cc2)nc(Cl)c1CC(=O)O [Example 1-14]
< 10 nM | 129 °C | O=C(O)Cc1c(Cl)nc(Cc2ccc(NC(=O)c3ccc(Cl)c(Cl)c3)cc2)nc1N1CCCC1 [Example 1-61]
< 10 nM | > 150 °C | CN(C)c1nc(Cc2ccc(NC(=O)c3ccc(C(F)(F)F)cc3)cc2)nc(Cl)c1CC(=O)O [Example 1-39]
< 10 nM | 162 °C | CN(C)c1nc(Cc2ccc(NC(=O)/C=C/c3ccc(Cl)cc3)cc2)nc(N(C)C)c1CC(=O)O [Example 7-8]
100 to 500 nM | 197 to 198 °C | CN(C)c1nc(Cc2ccc(NC(=O)c3ccc(F)cc3)cc2)nc(N2CCOCC2)c1CC(=O)O [Example 7-30]
< 10 nM | > 160 °C | CN(C)c1nc(Cc2ccc(NC(=O)/C=C/c3ccccc3)cc2)nc(Cl)c1CC(=O)O [Example 1-33]
< 10 nM | 88 to 91 °C | CN(C)c1nc(Cc2ccc(NC(=O)OCc3ccccc3)cc2)nc(Cl)c1CC(=O)O [Example 9-3]
< 10 nM | 146 °C | CN(CC(=O)NC1CCCC1)c1nc(Cc2ccc(NC(=O)c3cc4ccccc4[nH]3)cc2)nc(Cl)c1CC(=O)O [Example 1-26]
< 10 nM | 134 °C | CN(CC(=O)NC1CCCCC1)c1nc(Cc2ccc(NC(=O)c3ccc4ccccc4c3)cc2)nc(Cl)c1CC(=O)O [Example 1-8]
< 10 nM | > 199 °C | CN(C)c1nc(Cc2ccc(NC(=O)/C=C/c3ccc(C(F)(F)F)cc3)cc2)nc(Cl)c1CC(=O)O [Example 1-68]
10 to 100 nM | 196 to 198 °C | CN(C)c1nc(Cc2ccc(NC(=O)c3ccc(Cl)c(Cl)c3)cc2)nc(N2CCOCC2)c1CC(=O)O [Example 7-19]
< 10 nM | > 111 °C | CN(C)c1ccc(C(=O)Nc2ccc(Cc3nc(Cl)c(CC(=O)O)c(N(C)C)n3)cc2)cc1 [Example 1-37]
< 10 nM | 151 to 154 °C | CC(c1ccc(NC(=O)c2ccc(C(F)(F)F)cc2)cc1)c1ncc(CC(=O)O)c(N(C)C)n1 (centres unmarked) [Example 2-22]
< 10 nM | 125 °C | Cc1ccc(C(=O)Nc2ccc(Cc3nc(Cl)c(CC(=O)O)c(N(C)CC(=O)NC4CCCC4)n3)cc2)cc1 [Example 1-21]
< 10 nM | 142 °C | CN(CC(=O)NC1CCCC1)c1nc(Cc2ccc(NC(=O)/C=C/c3ccccc3)cc2)nc(Cl)c1CC(=O)O [Example 1-17]
< 10 nM | 151 to 153 °C | O=C(O)Cc1cnc(Cc2ccc(NC(=O)c3ccc(Cl)cc3)cc2)nc1N1CCCC1 [Example 2-28]
10 to 100 nM | 158 to 160 °C | CC(C)c1nc(Cc2ccc(NC(=O)c3ccc4ccccc4c3)cc2)nc(N(C)C)c1CC(=O)O [Example 8-10]
< 10 nM | 173 °C | O=C(O)Cc1c(Cl)nc(Cc2ccc(NC(=O)c3ccc(Cl)cc3)cc2)nc1N1CCCC1 [Example 1-63]
< 10 nM | 137 °C | CN(CC(=O)NC1CCCC1)c1nc(Cc2ccc(NC(=O)c3ccc4ccccc4n3)cc2)nc(Cl)c1CC(=O)O [Example 1-16]
< 10 nM | > 120 °C | CN(C)c1nc(Cc2ccc(NC(=O)[C@@H]3CCc4ccccc4O3)cc2)nc(Cl)c1CC(=O)O [Example 1-67]

From US7960393B2, “Pyrimidine derivatives useful for the treatment of diseases mediated by CRTH2” (Actimis Pharmaceuticals, Inc., priority 2002, dated 2011)
